The values below come from US20260169011A1, “METHODS AND COMPOSITIONS FOR PROVIDING CUSTOMIZED NUTRITIONAL SUPPLEMENTS” (Vibrant Holdings LLC, priority 2023, published 2026).

Data set [1] in a line: Intracellular (RBC / WBC, cellular) nutrient levels by mass spectrometry. It is filed as in vivo, human. To be noted: Level: Cells, person; for Follow-up Nutrient Level: after customized blend; for Actual Nutrient Value (ANV): before customized blend. An excerpt:
(§1) In some embodiments, the detection method is mass spectrometry.

Data set [2] in a line: NutriPro test: serum, RBC and WBC nutrient values before and after ATB / customized blend. The settings on record: for Pre-test biomarker level: before ATB; for Follow-up Nutrient Level / Actual Nutrient Value (ANV): person three; for Actual Nutrient Value (ANV): before customized blend. It is filed as in vivo, human.
Description: The method for providing a nutritional supplement for a subject as disclosed herein is based on a comprehensive panel that assesses intracellular and extracellular levels of at least or up to 41 nutrients. […] Blood analysis using the method disclosed herein tests for nutrient levels in serum, red blood cells (RBCs), and white blood cells (WBCs). Additional genetic testing can assess patients' predispositions toward nutrient deficiencies. Based on the blood and genetic analysis results, a subsequent supplementation diet comprising supplements and food sources can be designed and implemented. The subject can be a human subject.
as §1
The ‘NutriPro’ test is used to assess serum (extracellular), RBC, and WBC (intracellular) nutrient values along with genetic testing for any predispositions with could be affecting nutrient values in the body. If required, additional tests such as the gut zoomer, cardiovascular health, thyroid test, kidney function test, liver function test, etc, are carried out. FIG. 1 provides a schematic diagram of the process of the NutriPro test from the individual subject to the creation of customized nutritional blends.
The ATB is given to the individual for nutritional supplementation, and blood testing for nutrients in serum, RBC, and WBC is carried out after 3 or 6 months.
The assessed change is called the VAF.
After testing, the individual takes the ATB or the customized blend for the amount of time indicated.

Data set [3] is described as follows: Vibrant Absorption Factor (VAF): difference of post- and pre-supplementation nutrient values divided by ATB dosage.
Description: Improvement in nutrition can be determined by comparing the nutrient values in serum, RBC, and WBCs post-nutritional supplementation to the nutrient values in serum, RBC, and WBCs pre-nutritional supplementation. Based on the improvement, the change in the nutrient levels can be attributed to the per milligram dosage of the supplemented nutrients. The assessed nutritional change is the “Vibrant Absorption factor (VAF (see Equation (1) below). The VAF can be used to determine the subject's utilization of the supplemented nutrients, as determined by the difference in extracellular and intracellular nutrient values before and after supplementation. Based on the subject's utility or absorption of the nutrients, the dosage amount of the nutrient needed to be supplemented or increased to effect change of the subject's nutrient values into the optimum nutrient zone can be assessed. In various embodiments, the VAF is determined by administering a pre-determined formulation, referred to herein as the Absorption Testing Blend.
Next, the ATB is administered to the individual for a predefined period at step 320a, after which nutrient levels and the genetic nutrient profile are re-evaluated, to obtain the post-supplementation biomarker values at step 330.
This includes determining the VAF based on the difference between post- and pre-supplementation biomarker values, which is divided by the ATB dosage.
The assessed change is called the VAF. The VAF is used to understand how the individual's body is utilizing these nutrients, depending on the difference in extracellular and intracellular nutrient values before and after supplementation. Based on the body's utility or absorption of the nutrients, the amount of nutrients needed to be supplemented to alter the individual's nutrient values into the optimum nutrient zone is understood. The VAF calculations help in determining the appropriate dosages of nutrients required in the ‘customized blend.’
The conditions of data set [4]: cited from earlier work.
A short description of data set [5]: Extracellular (serum) nutrient levels by mass spectrometry (LC-MS, GC-MS, ICP-MS). The settings on record: for Follow-up Nutrient Level / Actual Nutrient Value (ANV): Level: Serum, person; for Follow-up Nutrient Level: after customized blend; for Actual Nutrient Value (ANV): before customized blend.
Description: In some embodiments, the detection method assesses nutrients both in extracellular plasma and intracellular in RBC and WBC. In some embodiments, the detection method is mass spectroscopy-based. The extracellular and intracellular nutrient levels provide a comprehensive analysis of a subject's nutrient status, reflecting not only the intake levels but also the absorption levels into the cells.
In some aspects, the extracellular nutrient levels provide a snapshot of the status of nutrient baseline levels at a given time. It is a reflection of a person's diet over a narrow period of time. In contrast, the intracellular levels of nutrients provide information on the absorbed levels of nutrients, thus accounting for factors such as aging, lifestyle, chronic illness, medication, etc. that could interfere with absorption and can change the functional nutritional levels.
In some embodiments, the detection method is mass spectrometry. In some embodiments, the detection method is Liquid chromatography-mass spectrometry (LC-MS), Gas chromatography-mass spectrometry (GC-MS), or Inductively coupled plasma-mass-spectrometry (ICP-MS). In some embodiments, the detection method is Liquid chromatography-mass spectrometry (LC-MS). In some embodiments, the detection method is Gas chromatography-mass spectrometry (GC-MS). In some embodiments, the detection method is Inductively coupled plasma-mass-spectrometry (ICP-MS).
In some embodiments, the method provided herein evaluates nutrient levels, both in extracellular serum and inside (intracellular) red blood cells (RBC) and/or white blood cells (WBC). The extracellular nutrient levels provide a snapshot of the status of nutrient baseline levels at a given time. These extracellular nutrient levels are a reflection of a person's diet over a narrow period of time. In contrast, RBCs have a normal lifespan of 120 days, and thus intracellular assessments for nutrients in RBCs can provide information on nutrients over longer periods. Additionally, the intracellular levels of nutrients provide information on the absorbed levels of nutrients, thus accounting for factors such as, but not limited to, aging, lifestyle, chronic illness, and medication, that can interfere with absorption and can change the functional nutritional levels. Moreover, actual nutrient utilization occurs inside the cell owing to cellular metabolic processes. At times, nutrients could be present in serum, but poor cellular uptake may result in cells being devoid of these nutrients, thus giving rise to nutrient deficiencies owing to affected cellular activities. […] As a result, it is important to assess nutrients intracellularly in addition to extracellularly. Thus, the intracellular assessment provides information on cellular uptake and utilization of nutrients at the most fundamental level, enabling understanding of the root cause of nutrient deficiencies.
The subject individual fills out the health questionnaire (PHQ) which helps establishes factors such as symptoms, complications, comorbidities, and ongoing medications. The subject's blood is drawn and the extracellular serum and intracellular blood cells are tested for nutritional deficiencies via mass spectroscopy (e.g., Liquid chromatography-mass spectrometry (LC-MS), Gas chromatography-mass spectrometry (GC-MS), or Inductively coupled plasma-mass-spectrometry (ICP-MS)).
The mark [6] stands for this setting: person two, serum, after customized blend.
The mark [7] stands for this setting: person one, serum, after customized blend.
The mark [8] stands for this setting: person two, cells, after customized blend.
Where [9] appears, read: person one, cells, after customized blend.

Read-outs that look alike come from different tables or passages of the source.

With `CC/C=C\C/C=C\C/C=C\C/C=C\C/C=C\CCCC(=O)O` [EPA], in data set [1] (unit not given), the “Follow-up Nutrient Level” value came out at 0.05 and the “Actual Nutrient Value (ANV)” value came out at 0.05. For the same compound, the Post-test biomarker level in data set [2] (person one, cells, after ATB, unit not given) was determined as 0.87. Further, the “Follow-up Biomarker level” value in data set [2] (person one, cells, after customized blend, unit not given) was 2.1. In data set [2] (person one, cells, unit not given), this compound yielded a Pre-test biomarker level of 0.1. Moreover, the VAF in data set [3] (person one, cells) is 0.154.

With `N[C@@H](CO)C(=O)O` [L-Serine], the UTL in data set [4] (upper tolerable limit) is 12000 mg/day. Besides, in data set [5], the “Follow-up Nutrient Level” value is given as 51 nmol/mL and the “Actual Nutrient Value (ANV)” value is given as 44 nmol/mL.

For `CC(C)(CO)[C@@H](O)C(=O)NCCC(=O)O` [Vitamin B5], in data set [5], the “Follow-up Nutrient Level” value came out at 0.00144 mg/dL and the “Actual Nutrient Value (ANV)” value came to 5.4 ng/mL. Moreover, the Post-test biomarker level in data set [2] (person two, serum, after ATB) was 23.5 ng/mL. Also, the “Follow-up Biomarker level” value in data set [2] (setting [6]) is 311 ng/mL. This compound came in with a Pre-test biomarker level in data set [2] (person two, serum) of 14.4 ng/mL. This compound also showed a VAF in data set [3] (person two, serum) of 18.2.

Regarding `Nc1nc2ncc(CNc3ccc(C(=O)N[C@@H](CCC(=O)O)C(=O)O)cc3)nc2c(=O)[nH]1` [Folate], the “Actual Nutrient Value (ANV)” value in data set [5] is reported as 0.8 ng/mL. The compound also registered a concentration at 3 months in data set [5] (female, human, serum) of 1.2 ng/mL. Also, the “Follow-up Biomarker level” value stood at 14.5 ng/mL in data set [2] (female, human, in vivo) and 14.3 ng/mL in data set [2] (setting [7]). Moreover, the Post-test biomarker level is given as 3.3 ng/mL in data set [2] (female, human, in vivo) and 2.8 ng/mL in data set [2] (person one, serum, after ATB). Besides, the Pre-test biomarker level was 1.2 ng/mL in data set [2] (person one, serum) and 0.9 ng/mL in data set [2] (person two, serum). The VAF in data set [3] (person one, serum) came to 0.032; in data set [3] (person two, serum), 0.048.

As for `CC/C=C\C/C=C\C/C=C\C/C=C\C/C=C\C/C=C\CCC(=O)O` [DHA], in data set [1] (unit not given), the “Follow-up Nutrient Level” value came out at 0.9 and the “Actual Nutrient Value (ANV)” value is listed as 0.9. The compound also had a Post-test biomarker level in data set [2] (person two, cells, after ATB, unit not given) of 1.9. In addition, the “Follow-up Biomarker level” value in data set [2] (person two, cells, after customized blend, unit not given) was found to be 9.4. In addition, in data set [2] (person two, cells, unit not given), the Pre-test biomarker level turned out to be 1.2. Also, the VAF in data set [3] (person two, cells) is reported as 0.14.

In the case of `[Fe]` [Iron], the UTL in data set [4] (Table 20, person three) is recorded as 45 mg/day. For the same compound, the “Follow-up Nutrient Level” value was 76.5 mg/dL in data set [1]; 0.019 mg/dL in data set [5]; 114100 µg/dL in data set [2] (cells, after customized blend); 141 µg/dL in data set [2] (serum, after customized blend). Further, the “Actual Nutrient Value (ANV)” value in data set [1] came to 76.5 mg/dL; in data set [5], 140 ng/mL; in data set [2] (cells), 62000 µg/dL; in data set [2] (serum) it was 22 µg/dL.

For the compound `[Ca]` [Calcium], the UTL is 2,500 mg/day in data set [4] (Table 18, person one); 2,500 mg/day in data set [4] (Table 19, person two); 2,500 mg/day in data set [4] (upper tolerable limit). Further, the “Follow-up Nutrient Level” value in data set [1] was 4.2 ng/MM WBC; in data set [5], 6.2 mg/dL. Further, the figures for the “Actual Nutrient Value (ANV)” value in data set [1] and in data set [5] were 4.2 ng/MM WBC and 31000 ng/mL, respectively. The Post-test biomarker level in data set [2] (person one, serum, after ATB) was 73000 ng/mL; in data set [2] (person two, serum, after ATB), 59000 ng/mL. In addition, the “Follow-up Biomarker level” value in data set [2] (setting [7]) was 104000 ng/mL; in data set [2] (setting [6]), 104200 ng/mL. Moreover, the Pre-test biomarker level was 65000 ng/mL in data set [2] (person one, serum) and 54000 ng/mL in data set [2] (person two, serum). Besides, the VAF turned out to be 0.8 in data set [3] (person one, serum) and 0.5 in data set [3] (person two, serum).

For the compound Vitamin A, the UTL was 10,000 IU/day in data set [4] (Table 19, person two) and 10,000 IU/day in data set [4] (Table 20, person three). The “Follow-up Nutrient Level” value in data set [2] (cells, after customized blend) is 14.4 pg/MM WBC; in data set [2] (serum, after customized blend), 128 µg/dL. The “Actual Nutrient Value (ANV)” value in data set [2] (cells) is 0.4 pg/MM WBC; in data set [2] (serum), 35 µg/dL. Further, the Post-test biomarker level in data set [2] (person two, cells, after ATB) is 2.1 pg/MM WBC; in data set [2] (person two, serum, after ATB), 470 ng/mL. Also, the “Follow-up Biomarker level” value in data set [2] (setting [8]) was found to be 14.5 pg/MM WBC; in data set [2] (setting [6]), 1290 ng/mL. Further, the Pre-test biomarker level in data set [2] (person two, cells) turned out to be 0.2 pg/MM WBC; in data set [2] (person two, serum) it was 220 ng/mL. For the same compound, the VAF turned out to be 0.0019 in data set [3] (person two, cells) and 0.025 in data set [3] (person two, serum).

For `[K+]` [Potassium], in data set [5], the “Follow-up Nutrient Level” value turned out to be 3400 nmol/mL and the “Actual Nutrient Value (ANV)” value was determined as 2800 nmol/mL.

On to `[Mn+2]` [Manganese], for which the UTL in data set [4] (Table 19, person two) is 11 mg/day. Further, the Post-test biomarker level in data set [2] (person two, cells, after ATB) was found to be 7.8 pg/MM WBC; in data set [2] (person two, serum, after ATB), 0.62 ng/mL. Further, the “Follow-up Biomarker level” value in data set [2] (setting [8]) was 67.5 pg/MM WBC; in data set [2] (setting [6]) it was 2.1 ng/mL. In addition, the Pre-test biomarker level in data set [2] (person two, cells) is listed as 0.5 pg/MM WBC; in data set [2] (person two, serum), 0.4 ng/mL. Also, the VAF in data set [3] (person two, cells) worked out at 7.684; in data set [3] (person two, serum), 0.2316.

As for `[Cu]` [Copper], the UTL in data set [4] (Table 18, person one) is given as 10 mg/day. In data set [5], the “Follow-up Nutrient Level” value stood at 0.05 mg/dL and the “Actual Nutrient Value (ANV)” value came to 100 ng/mL. The Post-test biomarker level in data set [2] (person one, serum, after ATB) turned out to be 900 ng/mL. Moreover, in data set [2] (setting [7]), the “Follow-up Biomarker level” value turned out to be 1690 ng/mL. For the same compound, in data set [2] (person one, serum), the Pre-test biomarker level was found to be 200 ng/mL. The compound also had a VAF in data set [3] (person one, serum) of 8.75.

Consider `[Mg]` [Magnesium], for which the UTL in data set [4] (Table 18, person one) was 350 mg/day. Further, the Post-test biomarker level in data set [2] (person one, serum, after ATB) worked out at 17000 ng/mL. For the same compound, in data set [2] (setting [7]), the “Follow-up Biomarker level” value is 25200 ng/mL. The Pre-test biomarker level in data set [2] (person one, serum) was determined as 5000 ng/mL. This compound also came in with a VAF in data set [3] (person one, serum) of 0.012.

With Vitamin E, in data set [5], the “Follow-up Nutrient Level” value worked out at 0.54 mg/dL. In addition, in data set [5], the “Actual Nutrient Value (ANV)” value amounted to 4200 ng/mL. For the same compound, the Post-test biomarker level in data set [2] (person one, serum, after ATB) was 18200 ng/mL; in data set [2] (person two, serum, after ATB), 17800 ng/mL. The entries for the “Follow-up Biomarker level” value in data set [2] (setting [7]) and in data set [2] (setting [6]) were 36500 ng/mL and 35400 ng/mL, respectively. For the same compound, the Pre-test biomarker level came to 5500 ng/mL in data set [2] (person one, serum) and 3200 ng/mL in data set [2] (person two, serum). For the same compound, the VAF in data set [3] (person one, serum) was 4.233; in data set [3] (person two, serum) it was 4.867.

In the case of `C=C1CC[C@H](O)C/C1=C/C=C1\CCC[C@]2(C)[C@@H]([C@H](C)CCCC(C)C)CC[C@@H]12` [Vitamin D3], the “Follow-up Nutrient Level” value in data set [5] is 7.2e-05 mg/dL. Also, the “Actual Nutrient Value (ANV)” value in data set [5] is reported as 0.1 ng/mL. The Post-test biomarker level in data set [2] (person one, cells, after ATB) came out at 18.9 pg/MM WBC; in data set [2] (person one, serum, after ATB), 2.3 ng/mL; in data set [2] (person two, cells, after ATB), 18.9 pg/MM WBC. Further, the results for the “Follow-up Biomarker level” value in data set [2] (setting [9]), in data set [2] (setting [7]) and in data set [2] (setting [8]) were 212 pg/MM WBC, 8.7 ng/mL and 221 pg/MM WBC, respectively. Also, the Pre-test biomarker level in data set [2] (person one, cells) is 12.2 pg/MM WBC; in data set [2] (person one, serum) it was 0.5 ng/mL; in data set [2] (person two, cells), 12.2 pg/MM WBC. The VAF was found to be 0.067 in data set [3] (person one, cells); 0.018 in data set [3] (person one, serum); 0.067 in data set [3] (person two, cells).

In the case of `O=C1O[C@H]([C@@H](O)CO)C(O)=C1O` [Vitamin C], the “Follow-up Nutrient Level” value in data set [5] came to 0.23 mg/dL. Also, in data set [5], the “Actual Nutrient Value (ANV)” value was 1000 ng/mL. For the same compound, the Post-test biomarker level in data set [2] (person one, cells, after ATB) turned out to be 1.1 pg/MM WBC; in data set [2] (person two, cells, after ATB) it was 1.1 pg/MM WBC. For the same compound, the “Follow-up Biomarker level” value in data set [2] (setting [9]) worked out at 9.2 pg/MM WBC; in data set [2] (setting [8]), 8.3 pg/MM WBC. Besides, the Pre-test biomarker level in data set [2] (person one, cells) was 0.05 pg/MM WBC; in data set [2] (person two, cells) it was 0.1 pg/MM WBC. Moreover, the VAF in data set [3] (person one, cells) was determined as 0.07; in data set [3] (person two, cells) it was 0.06667.
